According to PMC7926264 (Clinical cancer research : an official journal of the …, 2020):

What was measured:
[1] = tested on: CUTO14 cells (EGFR exon 20 insertion p.A767_V769dupASV); experiment: cells; conditions: Homo sapiens, CUTO14, 72 h, read-out: IC50 proliferation
[2] = tested on: CUTO18 cells (EGFR exon 20 insertion p.S768_D770dupSVD); experiment: cells; conditions: Homo sapiens, 72 h, read-out: IC50 proliferation
H2170 cells (HER2 amp) = experiment: cells; assay type: cell-based; conditions: Homo sapiens, NCI-H2170, 72 h, read-out: IC50 proliferation
[3] = tested on: H661 cells (HER4 overexpression); experiment: cells; assay type: cell-based; conditions: Homo sapiens, NCI-H661, 72 h, read-out: IC50 proliferation
[4] = tested on: CUTO17 cells (EGFR exon 20 insertion p.N771_773dupNPH); experiment: cells; conditions: Homo sapiens, CUTO17, 72 h, read-out: IC50 proliferation
[5] = tested on: H1781 cells (HER2 ex20ins); experiment: cells; assay type: cell-based; conditions: Homo sapiens, NCI-H1781, 72 h, read-out: IC50 proliferation
Calu-3 cells (HER2 amp) = experiment: cells; assay type: cell-based; conditions: Homo sapiens, Calu-3, 72 h, read-out: IC50 proliferation
[6] = tested on: EGFR phosphorylation (pEGFR) in CUTO14, CUTO17, and CUTO18
[7] = Afatinib plasma pharmacokinetics and human equivalent dose in nude mice; assay type: in vivo
[8] = Clinical plasma pharmacokinetics of afatinib; assay type: in vivo; conditions: human, po, 40 mg
[9] = tested on: MDA-MB-175vIII cells (DOC4-NRG1 fusion); experiment: cells; assay type: cell-based; conditions: Homo sapiens, 72 h, read-out: IC50 proliferation
[10] = Human plasma protein binding; assay type: in vitro ADME
[11] = Mouse plasma protein binding; assay type: in vitro ADME
[12] = cited from earlier work

| human equivalent dose (HED) in nude mice ([7]; extrapolation by linear regression to total AUC of 468 ng*hr/mL) [mg/kg] | plasma AUCtotal required in mice to replicate human AUCfree ([7]; mice) [ng·h/mL] | AUC [8] [ng·h/mL] | IC50 [9] [nM] | fraction unbound [10] | fraction unbound [11] | SMILES | IC50 [1] [nM] | IC50 [2] [nM] | IC50 (H2170 cells (HER2 amp)) [nM] | IC50 [3] [µM] | IC50 [4] [nM] | IC50 [5] [nM] | IC50 (Calu-3 cells (HER2 amp)) [nM] | inhibition of EGFR phosphorylation (pEGFR) [6] | Cmax in patients at steady state ([12]; 40mg PO daily) [ng/mL] | plasma AUCtotal ([12]; human, 40 mg PO once daily) [ng·h/mL] | Cmax ([12]; read-out: Cmax in patients at steady state, 40mg PO daily) [nM] |
| --- | --- | --- | --- | --- | --- | --- | --- | --- | --- | --- | --- | --- | --- | --- | --- | --- | --- |
|  |  |  |  |  |  | C=CC(=O)Nc1cc(Nc2nccc(-c3cn(C)c4ccccc34)n2)c(OC)cc1N(C)CCN(C)C [Osimertinib] | 303 | 647 ± 6.7 | 113 ± 4.4 | 4.518 ± 0.002 | 426 ± 21.5 | 406 | 188 ± 35.2 | showed inhibition at higher concentrations |  |  |  |
| 6 | 468 | 27 | 1.2 ± 3.1 | 0.0821 | 0.0577 | CN(C)C/C=C/C(=O)Nc1cc2c(Nc3ccc(F)c(Cl)c3)ncnc2cc1O[C@H]1CCOC1 [Afatinib] |  |  | 11 ± 2.9 |  |  | 66 | 31 ± 11.4 |  | 38 | 324 | 78 |
